Laboratory results reported in patent US9603896B2, “Peptide compounds and methods of production and use thereof” (priority 2012, dated 2017).
Ends that are not written are not given here.

Tests used:
[1] = test system: P. aeruginosa (ATCC® 27853™); test: Pseudomonas keratitis model in the mouse eye; assay type: in vivo; conditions: topical, doses of 10 and 20 mg/ml
Experimental: A circular wound was created on the mouse cornea by removing the epithelium and infected with 10^5 colony forming units (CFU) of P. aeruginosa (ATCC® 27853™ (American Type Culture Collection, Manassas, Va.)). Infected wounds were treated with saline (0.9% sodium chloride, vehicle control) or saline containing indicated concentrations of peptide every 15 minutes for 2 hours, then every 30 minutes for 3 hours on the first day. Infected wounds were treated twice on the second day and once on the third day. Mice were killed at 48 hours post-infection, and CFU/eye were quantified. The means were plotted and are representative of 5 to 9 mice per group. Mann Whitney test was performed for each group as compared to the saline control group. *P=0.014.
A circular wound (2 mm) was created on the mouse cornea by removing the epithelium and infecting the wound with 10^5 CFU of P. aeruginosa (ATCC® 27853™ (American Type Culture Collection, Manassas, Va.)). Infected wounds were treated with saline or saline containing indicated concentrations of peptide every 15 minutes for 2 hours, then every 30 minutes for 3 hours on the first day. Infected wounds were treated twice on the second day and once on the third day. Mice were killed at 48 hours post-infection, and the colony forming units per eye (CFU/eye) were quantified. The means are plotted and are representative of 5 to 9 mice per group. Mann Whitney test was performed for each group as compared to the saline control group.
For FIGS. 15-17, in vivo bactericidal activity of the peptides was also investigated using the standard Pseudomonas keratitis model in the mouse eye (FIGS. 15-17). Peptides 120-146QR-5RMP (SEQ ID NO:32), 120-146WH (SEQ ID NO:31), and 120-146WR (SEQ ID NO: 30) were applied topically at doses of 2, 5, 10, and 20 mg/ml to the wounded cornea that had been infected with 10^5 CFU of Pseudomonas aeruginosa. The efficacies of the peptides were compared to treatment with the vehicle control. Mice were euthanized at 48 hours post infection, and the CFU/eye were quantified.

[2] = test system: mouse cornea; test: In vivo model of corneal wound healing (corneal epithelial abrasion)
Experimental: The in vivo model of wound healing was carried out using a disposable biopsy punch (2 mm, Miltex, York, Pa.) to demarcate the mouse cornea and a 0.5 mm burr using the AlgerBrush II (The Alger Company, Inc., Lago Vista, Tex.) to remove the corneal epithelium. The corneal abrasions were treated at 0 and 16 hours with peptide 95-122 (10^−5 M), peptide 120-146WH (10^−6 M and 10^−8M), peptide 120-146WR ((10^−6 M and 10^−8M), or vehicle control (0.9% sodium chloride, pH 5.5, Baxter, Deerfield, Ill.). Corneal abrasions were visualized using sterile fluorescein sodium ophthalmic strips USP (Fluorets®, Chauvin Laboratory, Aubenas, France) dampened with sterile PBS. Images were taken at 0, 16, and 24 hours immediately following fluorescein staining.
Mice were anesthetized using ketamine (100 mg/kg; Bionichepharma, LLC., St. Lake Forrest, Ill.) and xylazine ([…]; Rompun; Bayer Corp., Shawnee Mission, Kans.), and the right cornea was wounded as follows. A disposable biopsy punch (2 mm, Miltex, York, Pa.) was used to demarcate the mouse cornea. The corneal epithelium was carefully removed within the 2 mm demarcated area with a 0.5 mm burr using the AlgerBrush II (The Alger Company, Inc., Lago Vista, Tex.). The corneal abrasions were treated at 0 and 16 hours with HB-EGF (250 ng/ml), rCAP37 (250 ng/ml), or vehicle control (0.9% sodium chloride, pH 5.5, Baxter, Deerfield, Ill.). Corneal abrasions were visualized using sterile fluorescein sodium ophthalmic strips USP (FLUORETS®, Chauvin Laboratory, Aubenas, France) dampened with sterile PBS. Images were taken at 0, 16, 24, and 48 hours immediately following fluorescein staining using a surgical microscope equipped with a camera (Carl Zeiss OPMI VISU 140, Carl Zeiss Surgical, Inc., Oberkochen, Germany). The areas of the open wound were quantitated using ImageJ software (US National Institutes of Health), and the results were reported as the percentage of wound closure.
Whole mouse eyes were collected for histology at 0, 6, 16, 24, and 48 hours post wounding and were immediately placed in Prefer fixative (Anatech LTD., Battle Creek, Mich.) for 20 minutes before being transferred to 70% ethanol. Tissues were paraffin-embedded and cut at a thickness of 5 μm, mounted on SUPERFROSTPLUS® slides (Statlab Medical Products, Lewisville, Tex.), and subsequently deparaffinized, rehydrated, and washed in deionized water. Sections were stained with hematoxylin (Leica Microsystems, Buffalo Grove, Ill.) and rinsed twice in deionized water before being washed in Blue Buffer (Leica Microsystems). The sections were finally washed in deionized water and 95% ethanol prior to being counterstained with eosin (Leica Microsystems). Sections were dehydrated in ethanol and cleared in xylene.

[3] = test system: cytokines in mouse cornea; test: Cytokines in corneal lysates after intrastromal injection (MILLIPLEX MAP mouse cytokine assay); assay type: in vivo; conditions: intrastromal 0.5 μl, 10^−4, 10^−5, 10^−6 M; 24 and 48 hours
Experimental: Corneas were injected intrastromally with 0.5 μl of peptide 95-122 at a final concentration of 10^−4 M, 10^−5 M, and 10^−6 M and vehicle (saline) control. Corneas were collected and flash frozen at 24 hours and 48 hours. Corneal lysates were analyzed for cytokines using the MILLIPLEX® MAP mouse cytokine assay for IL-7(A), IL-15 (B), IFN-γ (C), MIP1-α (D) (EMD Millipore Corp., Billerica, Mass.). The means of independent experimental values are shown ±SEM. ***P<0.001, **P<0.01, *P<0.05 by unpaired t-test as compared to vehicle treated controls. […] Corneas were injected intrastromally with 0.5 μl of peptide 95-122 at a final concentration of 10^−4 M, 10^−5 M, and 10^−6 M and vehicle (saline) control. Corneas were collected and flash frozen at 24 hours and 48 hours. Corneal lysates were analyzed for cytokines using the MILLIPLEX® MAP mouse cytokine assay for MIP1-β (EMD Millipore Corp., Billerica, Mass.). **P<0.01, *P<0.05 by unpaired t-test as compared to vehicle treated controls. […] Corneas were injected intrastromally with 0.5 μl of peptide 95-122 at a final concentration of 10^−4 M, 10^−5 M, and 10^−6 M and vehicle (saline) control. Corneas were collected and flash frozen at 24 hours and 48 hours. Corneal lysates were analyzed for cytokines using the MILLIPLEX® MAP mouse cytokine assay for KC (A), IL-1β (B), and GM-CSF (C) (EMD Millipore Corp., Billerica, Mass.). **P<0.01, *P<0.05 by unpaired t-test as compared to vehicle treated controls.

Row | Sequence | CFU/eye at 48 hours post infection vs saline [1] | amount of corneal wound healing vs vehicle-treated ([2]; 10^−8M or 10^−6M at 0 and 16 hours, closure at 16 and 24 hours) | corneal wound healing (wound closure at 16 and 24 hours) vs vehicle ([2]; 10^−5 M at 0 and 16 hours) | GM-CSF in corneal lysates [3] | IFN-γ in corneal lysates [3] | IL-1β in corneal lysates [3] | IL-7 in corneal lysates [3] | IL-15 in corneal lysates [3] | KC in corneal lysates [3] | MIP1-13 in corneal lysates [3] | MIP1-α in corneal lysates [3]
1 | GTRCQVAGWGSWHSGGRLSRFPRFVNV [Peptide 120-146WH] | significantly reduced the CFU/eye | significantly greater | – | – | – | – | – | – | – | – | –
2 | LDREANLTSSVTILPLPLQNATVEAGTR (listed as Homo sapiens) [Peptide 95-122] | – | – | promotes corneal wound healing | significantly increases | significantly increases | significantly increases | significantly increases | significantly increases | significantly increases | significantly increases | significantly increases
